Reference: the supplement of paper PMC10627819

How the values were obtained:
B. subtilis 168 [1] = assay: fitness (endpoint OD595 vs no drug) (fraction); higher = more growth
Outline: (§1)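 In 384-well plates at 37 °C, cultures began at OD595 0.01 in 30 µl, with 55 µl used for S. pneumoniae. OD595 readings every 30 min for 14 h were corrected by the first reading. Fitness divides the stationary-phase transition optical density by the robust mean of no-drug control wells. The result is capped at 1.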

S. aureus DSM 20231 [2] = assay: as above
Outline: as §1

S. aureus Newman [3] = assay: as above
Outline: as §1

S. pneumoniae D39V [4] = assay: as above
Outline: as §1

B. subtilis 168 [5] = assay: Bliss interaction score (quartile over a dose matrix) (fitness difference); higher = more antagonism (negative = synergy)
Outline: (§2)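 Each plate was normalised to the robust mean of its own no-drug wells, using OD595 at entry into stationary phase, with values capped at 1. This normalised growth is the fitness value. The Bliss score is the difference between observed and product-expected fitness, with single-drug fitness inferred from the combination data and quartiles taken over technical, biological and donor/recipient replicates.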

S. aureus DSM 20231 [6] = assay: as above
Outline: as §2

S. aureus Newman [7] = assay: as above
Outline: as §2

S. pneumoniae D39V [8] = assay: as above
Outline: as §2
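Throughout, for Bliss interaction score (quartile over a dose matrix): first quartile when negative (synergy) and third quartile when positive (antagonism).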

COc1cccc2c1C(=O)c1c(O)c3c(c(O)c1C2=O)C[C@@](O)(C(=O)CO)C[C@@H]3O[C@H]1C[C@H](N)[C@H](O)[C@H](C)O1 [Doxorubicin] + COc1ccc(C[C@H](N)C(=O)N[C@H]2[C@@H](O)[C@H](n3cnc4c(N(C)C)ncnc43)O[C@@H]2CO)cc1 [Puromycin]
fitness
Settings | first compound 0.25 µg/mL | first compound 0.5 µg/mL | first compound 0.625 µg/mL | first compound 1 µg/mL | first compound 1.25 µg/mL | first compound 2.5 µg/mL
B. subtilis 168 [1], partner 0.39 µg/mL | – | – | 0.918 | – | 0.879 | 0.558
B. subtilis 168 [1], partner 0.78 µg/mL | – | – | 0.987 | – | 0.925 | 0.45
B. subtilis 168 [1], partner 1.56 µg/mL | – | – | 0.925 | – | 0.89 | 0.336
S. aureus DSM 20231 [2], partner 0.39 µg/mL | – | – | 0.912 | – | 0.869 | 0.803
S. aureus DSM 20231 [2], partner 0.78 µg/mL | – | – | 0.889 | – | 0.954 | 0.783
S. aureus DSM 20231 [2], partner 1.56 µg/mL | – | – | 0.874 | – | 0.858 | 0.733
S. aureus Newman [3], partner 0.39 µg/mL | – | – | 0.84 | – | 0.763 | 0.699
S. aureus Newman [3], partner 0.78 µg/mL | – | – | 0.801 | – | 0.767 | 0.68
S. aureus Newman [3], partner 1.56 µg/mL | – | – | 0.84 | – | 0.725 | 0.678
S. pneumoniae D39V [4], partner 1 µg/mL | 0.998 | ≥ 1 | – | 0.882 | – | –
S. pneumoniae D39V [4], partner 2 µg/mL | 0.926 | 0.914 | – | 0.874 | – | –
S. pneumoniae D39V [4], partner 4 µg/mL | 0.54 | 0.567 | – | 0.399 | – | –

fitness, S. aureus DSM 20231 [2], one replicate
Settings | first compound 0.625 µg/mL | first compound 1.25 µg/mL | first compound 2.5 µg/mL
partner 3.12 µg/mL | 0.91 | 0.821 | 0.776
partner 6.24 µg/mL | 0.801 | 0.679 | 0.59

Settings | Bliss interaction score
B. subtilis 168 [5] | -0.059
S. aureus DSM 20231 [6] | -0.0672
S. aureus Newman [7] | -0.0786
S. pneumoniae D39V [8] | 0.0661

CO/N=C(\C(=O)N[C@@H]1C(=O)N2C(C(=O)O)=C(COC(C)=O)CS[C@H]12)c1csc(N)n1 [Cefotaxime] + Cn1nnc(-c2ccc(-c3ccc(N4C[C@H](CO)OC4=O)cc3F)cn2)n1 [Tedizolid]
S. aureus DSM 20231 [2], first compound 0.039 µg/mL, one replicate
Settings | fitness
partner 0.0625 µg/mL | 0.806
partner 0.125 µg/mL | 0.762
partner 0.25 µg/mL | 0.643

fitness
Settings | partner 0.03125 µg/mL | partner 0.0625 µg/mL | partner 0.125 µg/mL | partner 0.25 µg/mL | partner 0.5 µg/mL
S. aureus DSM 20231 [2], first compound 0.078 µg/mL | – | 0.767 | 0.718 | 0.532 | –
S. aureus DSM 20231 [2], first compound 0.156 µg/mL | – | 0.761 | 0.608 | 0.509 | –
S. aureus DSM 20231 [2], first compound 0.312 µg/mL | – | 0.691 | 0.602 | 0.448 | –
S. aureus Newman [3], first compound 0.078 µg/mL | – | 0.592 | 0.475 | 0.217 | –
S. aureus Newman [3], first compound 0.156 µg/mL | – | 0.455 | 0.338 | 0.0974 | –
S. aureus Newman [3], first compound 0.312 µg/mL | – | 0.232 | 0.145 | 0.0726 | –
S. aureus Newman [3], first compound 0.625 µg/mL | – | 0.0654 | 0.0082 | 0.0399 | –
S. aureus Newman [3], first compound 1.25 µg/mL | – | 0.021 | 0.0172 | 0.03 | –
S. aureus Newman [3], first compound 2.5 µg/mL | – | 0.0122 | 0.0108 | 0.0325 | –
S. pneumoniae D39V [4], first compound 0.0018 µg/mL | 0.968 | 0.969 | 0.844 | 0.482 | 0.172
S. pneumoniae D39V [4], first compound 0.0035 µg/mL | 0.953 | 0.972 | 0.847 | 0.468 | 0.14
S. pneumoniae D39V [4], first compound 0.007 µg/mL | 0.95 | 0.958 | 0.812 | 0.427 | 0.104

Settings | Bliss interaction score
B. subtilis 168 [5] | 0.0923
S. aureus DSM 20231 [6] | 0.114
S. aureus Newman [7] | -0.105
S. pneumoniae D39V [8] | 0.0955

COc1cccc2c1C(=O)c1c(O)c3c(c(O)c1C2=O)C[C@@](O)(C(=O)CO)C[C@@H]3O[C@H]1C[C@H](N)[C@H](O)[C@H](C)O1 [Doxorubicin] + CN[C@H](CC(C)C)C(=O)N[C@H]1C(=O)N[C@@H](CC(N)=O)C(=O)N[C@H]2C(=O)N[C@H]3C(=O)N[C@H](C(=O)N[C@H](C(=O)O)c4cc(O)cc(O)c4-c4cc3ccc4O)[C@H](O)c3ccc(c(Cl)c3)Oc3cc2cc(c3O[C@@H]2O[C@H](CO)[C@@H](O)[C@H](O)[C@H]2O[C@H]2C[C@](C)(N)[C@H](O)[C@H](C)O2)Oc2ccc(cc2Cl)[C@H]1O [Vancomycin]
Settings | fitness
S. aureus DSM 20231 [2], first compound 0.625 µg/mL, partner 0.1875 µg/mL | 0.843
S. aureus DSM 20231 [2], first compound 0.625 µg/mL, partner 0.375 µg/mL | 0.869
S. aureus DSM 20231 [2], first compound 0.625 µg/mL, partner 0.75 µg/mL | 0.888
S. aureus DSM 20231 [2], first compound 1.25 µg/mL, partner 0.1875 µg/mL | 0.84
S. aureus DSM 20231 [2], first compound 1.25 µg/mL, partner 0.375 µg/mL | 0.927
S. aureus DSM 20231 [2], first compound 1.25 µg/mL, partner 0.75 µg/mL | 0.894
S. aureus DSM 20231 [2], first compound 2.5 µg/mL, partner 0.1875 µg/mL | 0.787
S. aureus DSM 20231 [2], first compound 2.5 µg/mL, partner 0.375 µg/mL | 0.952
S. aureus DSM 20231 [2], first compound 2.5 µg/mL, partner 0.75 µg/mL | 0.907
S. aureus Newman [3], first compound 0.625 µg/mL, partner 0.1875 µg/mL | 0.849
S. aureus Newman [3], first compound 0.625 µg/mL, partner 0.375 µg/mL | 0.825
S. aureus Newman [3], first compound 0.625 µg/mL, partner 0.75 µg/mL | 0.851
S. aureus Newman [3], first compound 1.25 µg/mL, partner 0.1875 µg/mL | 0.823
S. aureus Newman [3], first compound 1.25 µg/mL, partner 0.375 µg/mL | 0.814
S. aureus Newman [3], first compound 1.25 µg/mL, partner 0.75 µg/mL | 0.794
S. aureus Newman [3], first compound 2.5 µg/mL, partner 0.1875 µg/mL | 0.764
S. aureus Newman [3], first compound 2.5 µg/mL, partner 0.375 µg/mL | 0.745
S. aureus Newman [3], first compound 2.5 µg/mL, partner 0.75 µg/mL | 0.731
S. pneumoniae D39V [4], first compound 0.25 µg/mL, partner 0.03125 µg/mL | 0.92
S. pneumoniae D39V [4], first compound 0.25 µg/mL, partner 0.0625 µg/mL | 0.851
S. pneumoniae D39V [4], first compound 0.25 µg/mL, partner 0.125 µg/mL | 0.88
S. pneumoniae D39V [4], first compound 0.25 µg/mL, partner 0.5 µg/mL | 0.0816
S. pneumoniae D39V [4], first compound 0.5 µg/mL, partner 0.03125 µg/mL | 0.924
S. pneumoniae D39V [4], first compound 0.5 µg/mL, partner 0.0625 µg/mL | 0.898
S. pneumoniae D39V [4], first compound 0.5 µg/mL, partner 0.125 µg/mL | 0.913
S. pneumoniae D39V [4], first compound 0.5 µg/mL, partner 0.5 µg/mL | 0.0725
S. pneumoniae D39V [4], first compound 1 µg/mL, partner 0.03125 µg/mL | 0.865
S. pneumoniae D39V [4], first compound 1 µg/mL, partner 0.0625 µg/mL | 0.8
S. pneumoniae D39V [4], first compound 1 µg/mL, partner 0.25 µg/mL | 0.377
S. pneumoniae D39V [4], first compound 1 µg/mL, partner 0.5 µg/mL | 0.0604

Settings | Bliss interaction score
B. subtilis 168 [5] | -0.0982
S. aureus DSM 20231 [6] | -0.0449
S. aureus Newman [7] | -0.0426
S. pneumoniae D39V [8] | 0.048

C[C@@H]1O[C@@H]1P(=O)(O)O [Fosfomycin] + CN(N=O)C(=O)N[C@@H](C=O)[C@@H](O)[C@H](O)[C@H](O)CO [Streptozotocin]
fitness
Settings | partner 0.15 µg/mL | partner 0.3 µg/mL | partner 0.6 µg/mL | partner 1.2 µg/mL | partner 2.4 µg/mL | partner 4.8 µg/mL
B. subtilis 168 [1], first compound 1.562 µg/mL | 0.682 | 0.688 | 0.69 | – | – | –
B. subtilis 168 [1], first compound 3.124 µg/mL | 0.609 | 0.588 | 0.579 | – | – | –
B. subtilis 168 [1], first compound 6.248 µg/mL | 0.432 | 0.42 | 0.435 | – | – | –
S. aureus DSM 20231 [2], first compound 0.781 µg/mL | 0.717 | 0.627 | 0.549 | – | – | –
S. aureus DSM 20231 [2], first compound 1.562 µg/mL | 0.59 | 0.533 | 0.509 | – | – | –
S. aureus DSM 20231 [2], first compound 3.124 µg/mL | 0.476 | 0.441 | 0.292 | – | – | –
S. aureus Newman [3], first compound 0.781 µg/mL | 0.526 | 0.501 | 0.462 | – | – | –
S. aureus Newman [3], first compound 1.562 µg/mL | 0.491 | 0.455 | 0.342 | – | – | –
S. aureus Newman [3], first compound 3.124 µg/mL | 0.129 | 0.146 | 0.0801 | – | – | –
S. pneumoniae D39V [4], first compound 1.25 µg/mL | – | – | – | 0.898 | 0.934 | 0.952
S. pneumoniae D39V [4], first compound 2.5 µg/mL | – | – | – | 0.899 | 0.923 | 0.952
S. pneumoniae D39V [4], first compound 5 µg/mL | – | – | – | 0.732 | 0.703 | 0.747

Settings | Bliss interaction score
B. subtilis 168 [5] | -0.108
S. aureus DSM 20231 [6] | -0.0585
S. aureus Newman [7] | -0.0994
S. pneumoniae D39V [8] | -0.0567
